# Data from the OPERA property sets (Mansouri et al. 2018).
row,SMILES,logP
1,CCCCCCCC#N,2.75
2,C=C(C)C#N,0.68
3,C=CCC#N,0.4
4,CCCC#N,0.53
5,N#CCCCl,0.18
6,CCCCCCCCC#N,3.12
7,CC(C)C#N,0.46
8,CC(C)CCC#N,1.54
9,CCC(C)C#N (stereo unspecified),1.05
10,N#CCCCCl,0.56
11,CCCCCC#N,1.66
